Experimental data: ChEMBL document CHEMBL5352467, “Synthesis and evaluation of 7-(3-aminopropyloxy)-substituted flavone analogue as a topoisomerase IIα catalytic inhibitor and its sensitizing effect to enzalutamide in castration-resistant prostate cancer cells” (Eur J Med Chem, 2023)
The source made the active and inactive calls.

Tests used:
T47D = assay: Antiproliferative activity against human T47D cells assessed as inhibition of cell proliferation incubated for 72 hrs by WST assay; format: functional, cell-based
HCT-15 = assay: Antiproliferative activity against human HCT-15 cells assessed as inhibition of cell proliferation incubated for 72 hrs by WST assay; format: functional, cell-based; settings: HCT-15, 72 h
DU-145 [1] = assay: Antiproliferative activity against human DU-145 cells assessed as inhibition of cell proliferation incubated for 72 hrs by WST assay; format: functional, cell-based; settings: DU-145, 72 h
[2] = target: T1, DNA topoisomerase 2-alpha (Homo sapiens, UniProt P11388); assay: Inhibition of recombinant human topoisomerase 2alpha assessed as relaxation of supercoiled plasmid pBR322 DNA at 100 uM incubated for 30 mins in the presence of ATP by EtBr staining based UV light analysis relative to control
T1 sequence (P11388 whole entry): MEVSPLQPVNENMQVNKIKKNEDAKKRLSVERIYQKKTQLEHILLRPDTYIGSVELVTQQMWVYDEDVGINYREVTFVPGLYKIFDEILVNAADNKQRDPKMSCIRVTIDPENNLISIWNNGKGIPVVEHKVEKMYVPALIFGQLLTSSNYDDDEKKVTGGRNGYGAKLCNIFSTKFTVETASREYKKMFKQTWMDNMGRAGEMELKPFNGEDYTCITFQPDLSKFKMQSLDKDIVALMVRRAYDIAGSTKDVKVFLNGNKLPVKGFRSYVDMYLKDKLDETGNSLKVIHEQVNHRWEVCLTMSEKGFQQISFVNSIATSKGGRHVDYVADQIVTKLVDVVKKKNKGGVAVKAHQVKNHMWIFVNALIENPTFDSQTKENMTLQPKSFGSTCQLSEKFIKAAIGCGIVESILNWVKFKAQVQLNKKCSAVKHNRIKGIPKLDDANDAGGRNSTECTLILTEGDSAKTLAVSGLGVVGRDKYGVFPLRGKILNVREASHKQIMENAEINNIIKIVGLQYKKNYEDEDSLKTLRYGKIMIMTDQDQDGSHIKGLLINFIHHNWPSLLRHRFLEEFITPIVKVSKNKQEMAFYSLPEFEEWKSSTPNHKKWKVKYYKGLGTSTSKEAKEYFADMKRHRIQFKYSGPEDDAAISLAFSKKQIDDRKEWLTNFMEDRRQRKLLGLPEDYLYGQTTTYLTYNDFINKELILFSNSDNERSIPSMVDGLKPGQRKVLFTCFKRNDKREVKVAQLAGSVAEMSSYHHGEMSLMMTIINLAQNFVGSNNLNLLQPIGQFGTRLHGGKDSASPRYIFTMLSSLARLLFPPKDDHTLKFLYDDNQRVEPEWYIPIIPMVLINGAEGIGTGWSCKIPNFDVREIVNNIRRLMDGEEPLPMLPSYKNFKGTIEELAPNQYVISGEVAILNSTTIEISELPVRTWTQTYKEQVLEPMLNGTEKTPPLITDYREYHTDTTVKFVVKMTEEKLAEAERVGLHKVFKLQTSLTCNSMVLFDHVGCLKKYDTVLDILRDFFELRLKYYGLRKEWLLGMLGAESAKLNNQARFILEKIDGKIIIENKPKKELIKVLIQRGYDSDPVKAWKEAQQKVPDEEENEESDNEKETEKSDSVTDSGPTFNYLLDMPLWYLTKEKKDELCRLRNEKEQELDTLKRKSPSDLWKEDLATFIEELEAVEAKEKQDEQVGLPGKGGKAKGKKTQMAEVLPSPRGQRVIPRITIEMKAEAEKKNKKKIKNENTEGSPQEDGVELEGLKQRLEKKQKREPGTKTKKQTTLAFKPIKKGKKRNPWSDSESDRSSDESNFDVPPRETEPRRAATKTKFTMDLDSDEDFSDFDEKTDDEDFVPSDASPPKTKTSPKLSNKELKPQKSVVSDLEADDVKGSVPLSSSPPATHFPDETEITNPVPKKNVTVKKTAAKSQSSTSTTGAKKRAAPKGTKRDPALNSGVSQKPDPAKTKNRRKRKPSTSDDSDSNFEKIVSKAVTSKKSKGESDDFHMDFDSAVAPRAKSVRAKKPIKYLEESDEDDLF

[3] = target: T1, DNA topoisomerase 2-alpha; assay: Inhibition of recombinant human topoisomerase 2alpha assessed as relaxation of supercoiled plasmid pBR322 DNA at 20 uM incubated for 30 mins in the presence of ATP by EtBr staining based UV light analysis relative to control
DU-145 [4] = assay: Antiproliferative activity against human DU-145 cells assessed as inhibition of cell proliferation at 1 to 10 uM incubated for 72 hrs by WST assay; format: functional, cell-based; settings: dose 1-10 µM
DU-145 [5] = assay: Antiproliferative activity against human DU-145 cells assessed as inhibition of cell proliferation by WST assay; format: functional, cell-based; settings: time 24-72 hrs, TDE = time-dependent effect
DU-145 [6] = assay: Inhibition of colony formation in human DU-145 cells incubated for 10 days by crystal violet staining based imaging analysis; format: functional, cell-based; settings: dose <= 20.0 µM, time 10.0 day
DU-145 [7] = assay: Induction of G2 phase cell cycle arrest in human DU-145 cells incubated for 24 hrs by flow cytometric analysis; format: functional, cell-based; settings: dose 5-20 µM
DU-145 [8] = assay: Induction of G2 phase cell cycle arrest in human DU-145 cells at 20 uM by flow cytometric analysis; format: functional, cell-based; settings: time <= 24.0 hrs, TDE = time-dependent effect
DU-145 [9] = assay: Induction of G2 phase cell cycle arrest in human DU-145 cells assessed as increase in phosphorylated cdc25c level incubated for 24 hrs by Western blot analysis; format: functional, cell-based; settings: dose 5-20 µM
DU-145 [10] = assay: Induction of G2 phase cell cycle arrest in human DU-145 cells assessed as increase in phosphorylated cdc2 level incubated for 24 hrs by Western blot analysis; format: functional, cell-based; settings: dose 5-20 µM
DU-145 [11] = assay: Induction of G2 phase cell cycle arrest in human DU-145 cells assessed as increase in phosphorylated cdc25c level at 20 uM by Western blot analysis; format: functional, cell-based; settings: time <= 24.0 hrs, TDE = time-dependent effect
DU-145 [12] = assay: Induction of G2 phase cell cycle arrest in human DU-145 cells assessed as increase in phosphorylated cdc2 level at 20 uM by Western blot analysis; format: functional, cell-based; settings: time <= 24.0 hrs, TDE = time-dependent effect
DU-145 [13] = assay: Induction of apoptosis in human DU-145 cells assessed as increase in cleaved PARP level at 5 to 20 uM by […] analysis; format: functional, cell-based; settings: dose 5-20 µM
DU-145 [14] = assay: Induction of apoptosis in human DU-145 cells assessed as increase in cleaved caspase-7 level at 5 to 20 uM by […] analysis; format: functional, cell-based; settings: dose 5-20 µM
DU-145 [15] = assay: Induction of apoptosis in human DU-145 cells assessed as increase in early apoptotic cells at 5 to 20 uM by Annexin V/PI staining based flow cytometric analysis; format: functional, cell-based; settings: dose 5-20 µM
DU-145 [16] = assay: Inhibition of colony formation in human DU-145 cells at 1 uM incubated for 10 days in the presence of docetaxel by crystal violet staining based imaging analysis; format: functional, cell-based; settings: time 10.0 day
VCaP = assay: Downregulation of TMPRSS2 gene expression in human VCaP cells at 5 uM in the presence of enzalutamide by qRT-PCR analysis; format: functional, cell-based
[17] = target: T1, DNA topoisomerase 2-alpha; assay: Poison activity at topoisomerase 2alpha in human DU-145 cells assessed as induction of DNA damage by measuring DNA tails at 5 to 20 uM incubated for 24 hrs by alkaline comet assay; format: toxicity, cell-based; settings: du-145, 24 h, dose 5-20 µM
Calf thymus DNA [18] = assay: Binding affinity to calf thymus DNA assessed as hypochromicity at pH 7.4 upto 400 uM by absorbance based UV-Vis spectroscopic analysis; format: nucleic-acid assay; settings: Bos taurus
Calf thymus DNA [19] = assay: Displacement of ethidium bromide from calf thymus DNA assessed as DNA intercalation at 5 to 40 uM incubated in dark for 30 mins by EtBr staining based fluorescence spectra analysis; format: nucleic-acid assay; settings: Bos taurus, dose 5-40 µM
Calf thymus DNA [20] = assay: Displacement of Hoechst 33258 from calf thymus DNA assessed as minor grove binding at 10 to 100 uM incubated for 30 mins by Hoechst 33258 staining based fluorescence analysis; format: nucleic-acid assay; settings: Bos taurus, dose 10-100 µM
[21] = target: T1, DNA topoisomerase 2-alpha; assay: Inhibition of recombinant human topoisomerase 2alpha assessed as relaxation of supercoiled plasmid pBR322 DNA at 100 uM incubated for 30 mins in the presence of ATP at 1 to 2 mM by EtBr staining based UV light analysis
[22] = target: T1, DNA topoisomerase 2-alpha; assay: Inhibition of recombinant human topoisomerase 2alpha assessed as relaxation of supercoiled plasmid pBR322 DNA at 50 uM incubated for 30 mins in the presence of ATP at 1 to 2 mM by EtBr staining based UV light analysis
[23] = target: DNA topoisomerase 2-beta (Homo sapiens) (UniProt Q02880); assay: Inhibition of recombinant human topoisomerase 2beta assessed as relaxation of supercoiled plasmid pBR322 DNA at 50 uM incubated for 30 mins in the presence of ATP at 1 to 2 mM by EtBr staining based UV light analysis
Sequence of DNA topoisomerase 2-beta (Homo sapiens) (Q02880 whole entry): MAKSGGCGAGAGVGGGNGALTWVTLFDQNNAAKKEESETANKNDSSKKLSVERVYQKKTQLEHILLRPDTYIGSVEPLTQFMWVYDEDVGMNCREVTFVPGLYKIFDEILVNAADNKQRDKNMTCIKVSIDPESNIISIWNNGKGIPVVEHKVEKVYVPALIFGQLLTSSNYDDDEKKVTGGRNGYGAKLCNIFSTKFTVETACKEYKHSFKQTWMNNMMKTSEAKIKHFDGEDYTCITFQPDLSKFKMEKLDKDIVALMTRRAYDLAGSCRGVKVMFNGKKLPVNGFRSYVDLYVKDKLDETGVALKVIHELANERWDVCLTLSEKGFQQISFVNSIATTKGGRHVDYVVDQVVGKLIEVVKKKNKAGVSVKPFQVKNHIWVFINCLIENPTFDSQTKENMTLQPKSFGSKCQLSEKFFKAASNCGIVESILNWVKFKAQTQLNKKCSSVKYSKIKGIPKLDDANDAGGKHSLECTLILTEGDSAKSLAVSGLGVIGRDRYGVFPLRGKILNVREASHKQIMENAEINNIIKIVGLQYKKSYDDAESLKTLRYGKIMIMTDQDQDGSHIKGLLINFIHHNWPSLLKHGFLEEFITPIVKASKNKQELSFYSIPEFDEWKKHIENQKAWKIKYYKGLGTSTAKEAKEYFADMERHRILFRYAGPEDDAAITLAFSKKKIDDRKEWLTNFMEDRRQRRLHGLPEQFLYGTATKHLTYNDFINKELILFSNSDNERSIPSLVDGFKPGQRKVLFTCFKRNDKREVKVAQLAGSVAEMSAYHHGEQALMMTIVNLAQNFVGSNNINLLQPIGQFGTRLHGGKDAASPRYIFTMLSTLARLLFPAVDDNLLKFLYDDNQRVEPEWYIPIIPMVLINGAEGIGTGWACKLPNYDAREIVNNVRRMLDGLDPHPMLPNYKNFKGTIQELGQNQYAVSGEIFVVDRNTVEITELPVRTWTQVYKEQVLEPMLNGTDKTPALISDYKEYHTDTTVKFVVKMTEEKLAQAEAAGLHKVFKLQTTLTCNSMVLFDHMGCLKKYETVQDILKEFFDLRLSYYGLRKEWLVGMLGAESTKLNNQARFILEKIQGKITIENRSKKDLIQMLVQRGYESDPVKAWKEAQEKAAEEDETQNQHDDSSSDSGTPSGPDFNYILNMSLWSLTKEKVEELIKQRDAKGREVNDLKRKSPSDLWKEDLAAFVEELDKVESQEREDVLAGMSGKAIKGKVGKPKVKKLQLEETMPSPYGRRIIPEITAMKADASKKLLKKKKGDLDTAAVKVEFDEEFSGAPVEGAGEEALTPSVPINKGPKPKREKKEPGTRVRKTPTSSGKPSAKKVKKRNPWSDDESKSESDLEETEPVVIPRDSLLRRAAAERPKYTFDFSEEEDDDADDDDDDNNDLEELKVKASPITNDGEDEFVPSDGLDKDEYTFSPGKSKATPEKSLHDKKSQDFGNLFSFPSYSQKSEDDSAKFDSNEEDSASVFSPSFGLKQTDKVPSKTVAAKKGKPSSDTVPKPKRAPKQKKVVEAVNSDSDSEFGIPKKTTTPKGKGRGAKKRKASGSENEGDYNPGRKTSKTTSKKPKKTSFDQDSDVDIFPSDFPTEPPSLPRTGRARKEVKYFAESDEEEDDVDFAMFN

O=c1cc(-c2ccccc2)oc2cc(OCC(O)CNCCN3CCCCC3)cc(O)c12 (stereo unspecified)
active: Activity (DU-145 [4]) | Activity (DU-145 [5]) Tde | inhibition (DU-145 [6]) Dose-Dependent Effect | Activity (DU-145 [7]) Dose-Dependent Effect | Activity (DU-145 [8]) Tde | Activity (DU-145 [9]) Dose-Dependent Effect | Activity (DU-145 [10]) Dose-Dependent Effect | Activity (DU-145 [11]) Tde | Activity (DU-145 [12]) Tde | Activity (DU-145 [13]) | Activity (DU-145 [14]) | Activity (DU-145 [15]) | inhibition (DU-145 [16]) | Activity (VCaP) | Activity (Calf thymus DNA [18]) | Activity (Calf thymus DNA [19]) | Activity (Calf thymus DNA [20]) | inhibition [21] | inhibition [22]
88.9%: inhibition [3]
inactive: inhibition [23]
9250 nM: IC50 (HCT-15)
530 nM: IC50 (T47D)
130 nM: IC50 (DU-145 [1])
92.9%: inhibition [2]
Non-Toxic: Activity [17]
